From patent US20260317356A1, “SMALL MOLECULE MODULATORS OF OGG1” (AZKARRA THERAPEUTICS, INC., priority 2023, published 2026)

Legend:
nLucOGG1 in HeLa cells = target: T1, nLucOGG1 in HeLa cells (Homo sapiens, UniProt O15527); assay: Cellular Thermal Shift Assay to measure compound affinity for nLucOGG1 in HeLa cells (CETSA DTm); assay type: cell-based; settings: 10 μM compound, 37° C. 60 min, Tm vs DMSO control
T1 construct: thermal shift read by NanoGlo luminescence
Protocol: Biological Example 2: Cellular Thermal Shift Assay to Measure Compound Affinity for ^nLucOGG1 in HeLa Cells (CETSA DTm)
Cell Culture and Transfection of Hela Cells with ^nLucOGG1: For all tests, Hela cells were maintained in growth medium, Dulbecco's Minimum Eagle Medium (Multicell: Cat #319-005-CL) supplemented with 10% heat-inactivated fetal bovine serum (Gibco: Cat #12484-028) at 37° C. and 5% CO2 in a humidified tissue culture incubator. Transient transfections were performed using the Lonza 4-D Nucleofector X unit according to the manufacturer's protocol (Lonza Cat #V4XC-1024). Briefly, for each transfection, 1.2×10^6 cells were centrifuged at 1000 RPM for 5 minutes at room temperature before being diluted in 100 μL SE solution containing 18% v/v supplement and 1.5 μg pNF1-N-empty or pNF1-N-OGG1a vector. The total volume was transferred to a 100 μL nucleofection cuvette prior to transfer to the apparatus where HeLa cell nucleofection protocol CN-114 was executed. Following nucleofection, 500 μL complete media was added to the cells in the cuvette before transferring to a 6-well dish containing 1.5 mL of complete media. Cells were left to incubate for 48 hours before performing all cellular thermal shift experiments.
Cellular Thermal Shift Assays for Target Engagement (CETSA): Forty-eight hours following nucleofection, cells were washed once with DPBS−/−(Multicell: Cat #311-425-CL) and lifted with 0.25% Trypsin-EDTA (Multicell: Cat #325-043-CL) prior to dilution in growth medium and centrifugation at 1000 RPM for 5 minutes at room temperature. The resulting cell pellet was then resuspended in growth medium, cells were counted and the volume adjusted to 500 k cells/mL (2×).
For delta Tm determination, OGG1 inhibitor compounds were dissolved in DMSO to a final working concentration of 20 mM. Working solutions were then diluted in complete media to 20 μM or 0.1% DMSO for the vehicle control (2×). 2×OGG1 inhibitor compound solutions or 0.1% DMSO control were then pre-dispensed into MicroAmp Optical 96-well PCR reaction plates (Applied Biosystems: Cat #4346906) at 50 μL/well. Next, 50 μL or 25 k cells/well from the 2× cell suspension was added to the pre-loaded PCR plates. All plates were prepared as duplicates, covered with adhesive plate sealers (Perkin Elmer: Cat #6050185) and left to incubate at 37° C. for 60 minutes. During incubation, sufficient NanoGlo luciferase assay reagents (Promega: Cat #N1120) were left to equilibrate to room temperature in the dark. Immediately before heating the plates, the NanoGlo substrate was mixed with the NanoGlo buffer at a 1:50 ratio. The thermal cycler (Veriti 96-Well Thermal Cycler, Thermo Fisher Scientific) was allowed to reach the designated temperature prior to placement of the PCR plate into the heating block. For Tm determination experiments, duplicate plates containing a fixed concentration of test compound (10 μM final) as well as vehicle control were prepared to perform a 12-point temperature gradient spanning 37-70° C. for 3 minutes. Therefore, two thermal cycler protocols were set up covering two 6-step temperature gradients ranging from 37-52° C. and 52-70° C. Plates were then allowed to cool at room temperature for 5 minutes after the heat treatment followed by transfer of 75 μL of the reaction into a 96-well white polystyrene microplate (Corning: Cat #CLS3903) and addition of 75 μL of the prepared NanoGlo mixture. Microplates were then left to shake in the dark for 5 minutes before total luminescence was measured on a SpectraMax IX3 plate reader. The luminescence value obtained at each temperature was normalized to the luminescence obtained at 37° C. and the ratio obtained was plotted against the temperature. A Boltzman Sigmoidal non-linear regression was applied to the resulting data to determine Tm values and the difference between the Tm value for a given OGG1 inhibitor relative to the DMSO vehicle control was the delta Tm.

hOGG1 [1] = target: T2, hOGG1 (Homo sapiens, UniProt O15527); assay: Surface Plasma Resonance with hOGG1 to measure compound affinity (OGG1 SPR Kd); assay type: binding; parameters: Protein His-hOGG1 (12-323) was prepared; settings: Biacore T-200, immobilized his-tagged OGG1; pH 7.4; 2% DMSO; single-cycle kinetics
Protocol: Surface Plasma Resonance with hOGG1 to Measure Compound Affinity (OGG1 SPR Kd); All the SPR studies were performed on a Biacore T-200 instrument (Cytiva life sciences) using series S NTA sensor chip (cat #BR-1005-32, Cytiva life sciences). Recombinant his-tagged OGG1 (mol. wt. 36003; ChemPartner, Shanghai, China) was immobilized on NTA sensor chip via Ni^2+/NTA chelation using NTA reagent kit (Cytiva life sciences; cat #289950) as per manufacturer's recommended protocol. The running buffer during immobilization contained HEPES (20 mM, pH 7.4), 150 mM NaCl, 0.5 mM TCEP (tris(2-carboxyethyl)phosphine), and 0.005% Tween-20. NTA sensor chip (experimental cell) was first conditioned by injecting regeneration solution (350 mM EDTA, flow rate 30 μL/min, 2 injections 60 each). Additional wash with 50 mM NaOH was used whenever the chip was regenerated (flow rate 30 μL/min, 1 injection of 60 s). The sensor chip was then activated with 0.5 mM NiCl2 (flow rate 10 μL/min, 2 injection of 60 s, leading to a baseline increase of ~40 RU), and the excess Ni^2+ was removed using immobilization buffer containing 3 mM EDTA (flow rate 10 μL/min, 1 injection of 60 s). Finally, OGG1 (diluted to 6.2 μg/mL in running buffer) was injected on the activated sensor chip at a flow rate of 10 μL/min until immobilization level reached ~6000 RU. Any loosely bound protein was removed by passing the immobilization buffer overnight at 20 μL/min. At this point, the drift in baseline was ~0.01 RU/s and the final immobilization level was ~2500 RU. Reference cell was left untreated. SPR binding experiments were performed using binding buffer (20 mM HEPES (pH 7.4), 150 mM NaCl, 0.5 mM TCEP, 0.005% Tween-20, and 2% DMSO) at a flow rate of 30 μL/min. Single-cycle kinetics approach was used for binding analysis which consisted of sequential injections of increasing concentrations of test compound (a 3-fold serial dilution with 5 concentrations; highest 750 or 1500 nM; with final DMSO concentration at 2%) over the immobilized protein without regeneration step between each sample injection. Each injection was 45 seconds long (contact time), followed by a final dissociation of 600 sec. The Biacore T-200 Evaluation software 3.1 (GE Healthcare) was used to determine kinetic parameters from SPR data. All the reported sensograms were reference subtracted and corrected for refractive index contributions from solvent using 8-point solvent correction (1.4 to 2.8% DMSO in binding buffer). Data were fit to both steady state and 1:1 kinetic model to obtain Kon, Koff and binding affinity (Kd).

hOGG1 [2] = target: T2, hOGG1; assay: Biochemical fluorescence assay to measure enzymatic activity of hOGG1 (OGG1/APEX IC50); parameters: Protein His-hOGG1 (12-323) was prepared; His (N); host or cells: E. coli; settings: 1 nM OGG1+2 nM APEX+6 nM dsDNA (8-oxo-dG substrate); pH 7.5; RT 40 min; read-out: OGG1/APEX IC50
Method in brief: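 Coupled glycosylase/AP-endonuclease read-out: 8-oxo-dG-containing dsDNA (6 nM) cleaved by 1 nM His-hOGG1 (12-323) plus 2 nM APEX1 over 40 min at room temperature, after 20 min enzyme–compound preincubation; buffer 20 mM Tris pH 7.5, 100 mM KCl, 0.1% BSA, 0.01% Tween. IC50 comes from sigmoidal 3-parameter fitting of % inhibition derived from TAMRA signal.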

T2 sequence (O15527 12-323): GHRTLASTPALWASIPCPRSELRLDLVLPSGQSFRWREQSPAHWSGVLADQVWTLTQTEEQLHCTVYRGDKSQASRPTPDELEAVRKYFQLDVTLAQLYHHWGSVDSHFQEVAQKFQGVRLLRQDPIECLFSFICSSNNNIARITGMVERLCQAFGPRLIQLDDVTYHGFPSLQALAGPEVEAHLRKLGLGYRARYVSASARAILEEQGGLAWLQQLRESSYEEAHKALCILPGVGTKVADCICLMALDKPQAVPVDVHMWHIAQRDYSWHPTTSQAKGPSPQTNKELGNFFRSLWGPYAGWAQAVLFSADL
T1 sequence (O15527 whole entry): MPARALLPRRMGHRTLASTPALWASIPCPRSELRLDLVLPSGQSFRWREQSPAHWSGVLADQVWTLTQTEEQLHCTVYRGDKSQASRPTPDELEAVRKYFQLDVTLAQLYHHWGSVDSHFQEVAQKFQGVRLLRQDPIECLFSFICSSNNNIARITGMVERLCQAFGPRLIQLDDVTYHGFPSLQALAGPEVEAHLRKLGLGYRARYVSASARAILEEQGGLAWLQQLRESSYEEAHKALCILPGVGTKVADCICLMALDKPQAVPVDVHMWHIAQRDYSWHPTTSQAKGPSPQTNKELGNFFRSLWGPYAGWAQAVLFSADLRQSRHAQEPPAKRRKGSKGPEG

## COc1ccc(NC(=O)[C@]2(C)CC[C@@H](N3Cc4c(C)ccc(OC)c4NC3=O)CC2)cc1C (single isomer, unassigned) [Example 10, (1r,4r)-N-(3-methyl-4-methoxyphenyl)-4-(8-methoxy-5-methyl-2-oxo-1,2-dihydroquinazolin-3(4H)-yl)-1-methylcyclohexanecarboxamide]
nLucOGG1 in HeLa cells
  ΔTm at 10 µM: ≤ 6 °C
hOGG1 [1]
  Kd: > 1000 nM

## COc1ccc(NC(=O)[C@]2(C)CC[C@@H](N3Cc4c(C)ccc(OC)c4NC3=O)CC2)cc1Cl (single isomer, unassigned) [Example 6, (1r,4r)-N-(3-Chloro-4-methoxyphenyl)-4-(8-methoxy-5-methyl-2-oxo-1,2-dihydroquinazolin-3(4H)-yl)-1-methylcyclohexanecarboxamide]
nLucOGG1 in HeLa cells
  ΔTm at 10 µM: ≤ 6 °C
hOGG1 [1]
  Kd: > 1000 nM

## COc1ccc(NC(=O)[C@]2(C)CC[C@@H](N3Cc4c(C)ccc(OC)c4NC3=O)CC2)cc1C#N (single isomer, unassigned) [Example 8, (1r,4r)-N-(3-cyano-4-methoxyphenyl)-4-(8-methoxy-5-methyl-2-oxo-1,2-dihydroquinazolin-3(4H)-yl)-1-methylcyclohexanecarboxamide]
nLucOGG1 in HeLa cells
  ΔTm at 10 µM: ≤ 6 °C
hOGG1 [1]
  Kd: > 1000 nM

## Cc1cc(NCCN(C)C)cc2c1CN([C@H]1CC[C@@H](C(=O)Nc3cc4ccccc4[nH]3)CC1)C2=O [Example 271, (1s,4s)-4-(6-(2-(dimethylamino)ethylamino)-4-methyl-1-oxoisoindolin-2-yl)-N-(1H-indol-2-yl)cyclohexanecarboxamide]
hOGG1 [2]
  IC50: < 100 nM
hOGG1 [1]
  Kd: 10 to 100 nM

## Cc1cc(NCCN(C)C)cc2c1CN([C@H]1CC[C@@H](C(=O)Nc3cc4ccccc4[nH]3)CC1)C2=O [Example 132, (1s,4s)-4-(6-((2-(Dimethylamino)ethyl)amino)-4-methyl-1-oxoisoindolin-2-yl)-N-(1H-indol-2-yl)cyclohexane-1-carboxamide]
nLucOGG1 in HeLa cells
  ΔTm at 10 µM: > 10 °C

## COc1cc(NC(=O)[C@]2(C)CC[C@@H](N3Cc4c(C)ccc(OC)c4NC3=O)CC2)ccc1C [Example 12, (1r,4r)-N-(3-Methoxy-4-methylphenyl)-4-(8-methoxy-5-methyl-2-oxo-1,2-dihydroquinazolin-3(4H)-yl)-1-methylcyclohexanecarboxamide]
nLucOGG1 in HeLa cells
  ΔTm at 10 µM: ≤ 6 °C
hOGG1 [1]
  Kd: > 1000 nM

## COc1cc(NC(=O)[C@H]2CC[C@@H](N3Cc4c(C)cc(C5COC5)cc4NC3=O)CC2)ccc1C [Example 33, (1s,4s)-N-(3-Methoxy-4-methylphenyl)-4-(5-methyl-7-(oxetan-3-yl)-2-oxo-1,2-dihydroquinazolin-3(4H)-yl)cyclohexanecarboxamide]
hOGG1 [2]
  IC50: < 100 nM
